{"source": "patent US12533384B2", "about": "“Lactobacillus reuteri CCFM1132 capable of relieving hyperuricemia and application thereof” (Jiangnan University, priority 2020, dated 2026)", "test_system": "mice with hyperuricemia", "assay": "Serum creatinine of mice with hyperuricemia (Mindray BS480 biochemical analyzer)", "assay_type": "in vivo, KunMing mice", "conditions": "5 mg/kg BW by intragastric administration", "procedure": "24 healthy male KunMing mice with the weight of 24 to 32 g were randomly divided into four groups after a week of acclimatization, namely a control group, a hyperuricemia model group, an L. reuteri CCFM1132 intervention group and an allopurinol intervention group (allopurinol). Except the control group, 500 mg/kg BW hypoxanthine was given to the other groups every day by intragastric administration, and 200 mg/kg BW oteracil potassium was intraperitoneally injected to the other groups 1 h later. At 1 h before processing with oteracil potassium, 100 g/L skim milk was given to the control group and the hyperuricemia model group, L. reuteri CCFM1132 with the concentration of 1.0×10^9 CFU/mouse was given to the L. reuteri CCFM1132 intervention group, and 5 mg/kg BW allopurinol was given to the allopurinol group.\nAt the end of the experiment, fresh feces of the mice was collected and frozen at −80° C. After the experiment was finished, the mice were subjected to fasting but free for drinking water for 12 h. 0.1 mL/10 g of […] pentobarbital sodium solution was intraperitoneally injected for anesthetization. […] The serum uric acid levels were determined by using a kit method.\nExperimental animal groups and processing methods are the same as those of Example 3, and serum creatinine was detected by using a Mindray BS480 biochemical analyzer according to a kit method.", "data": [{"smiles": "Oc1ncnc2[nH]ncc12", "note": "[allopurinol]", "values": [{"measurement": "serum creatinine reducing effect", "result": "does not have the reducing effect"}]}]}
